Laboratory results published in the NIST ThermoML archive (doi:10.1021/acs.jced.7b00192).

Assay: molar heat capacity at constant pressure; mn = molality of the nth substance listed, in mol/kg
Conditions: 10000 kPa, Liquid, Large sample (1 g) DSC

[K+].[OH-] [potassium hydroxide] + O
molar heat capacity at constant pressure [J/K/mol]
Conditions | m1 = 0.201 | m1 = 0.5009 | m1 = 0.999 | m1 = 2.012 | m1 = 3 | m1 = 4.505 | m1 = 6.002
325 K | 74.45 | 73.81 | 72.8 | 71.28 | 70.15 | 69.18 | 68.41
337.4 K | 74.58 | 73.96 | 73.05 | 71.64 | 70.55 | 69.5 | 68.84
349.7 K | 74.72 | 74.09 | – | – | – | – | 69.19
349.8 K | – | – | 73.21 | 71.81 | 70.8 | 69.82 | –
362.1 K | 74.89 | 74.29 | 73.45 | 72.13 | 71.12 | 70.2 | 69.62
374.5 K | 75.11 | 74.49 | 73.67 | 72.43 | 71.42 | 70.5 | 69.98
386.8 K | 75.37 | 74.76 | 73.96 | 72.65 | 71.69 | 70.78 | 70.31
399.2 K | 75.69 | 75.06 | 74.27 | 72.97 | 72.03 | 71.12 | 70.62
411.5 K | – | – | – | – | – | – | 70.86
411.6 K | 76.08 | 75.46 | 74.6 | 73.21 | 72.28 | 71.37 | –
423.9 K | 76.54 | 75.88 | 74.91 | 73.59 | 72.62 | 71.69 | 71.13
436.3 K | 77.1 | 76.36 | 75.36 | 73.96 | 72.91 | 71.95 | 71.43
448.6 K | 77.74 | – | – | – | – | – | 71.78
448.7 K | – | 76.95 | – | – | – | – | –
